Results reported in patent US5972357A, “Healthy foods and cosmetics” (Kikkoman Corporation, priority 1996, dated 1999).

Key:
[1] = survival rate of the cells in the EBV-EA induction inhibiting test; type: cell-based; conditions: human, raji cells, 8 μg/ml
Experimental: The EBV potentially infected human lymphoblasts (Raji) were first prepared in a concentration of 5×10^5 cell/ml, and cultured in an RPMI-1640 medium to which 3 mM n-butyric acid (inducer) and 50 nM TPA (12-O-tetradecanoylphorbol-13-acetate) (promoter) were added in an atmosphere of 5% carbon dioxide and 95% air under at a temperature of 37° C. for 48 hours. The cells in which EBV-EA had been induced were detected microscopically by indirect immunofluorescence with the serum of a nasopharyngeal carcinoma (NPC) patient. In this system, various concentrations (8 μg/ml, 40 μg/ml, and 200 μg/ml) of the test substance (garcinol sample shown in Referential Example 1) dissolved in DMSO (dimethylsolfoxide) were added together with the promoter to the cells. The activity of suppressing the induction of the Epstein-Barr virus early antigen was defined as the decreasing rate of the cells in which EBV-EA had been induced.

[2] = anti-oxidation activity (linoleic acid/β-carotene emulsion, autoxidation); conditions: 0.0005% test substance, pH 7.0, 25° C., 460 nm; lesser ratio = stronger
Experimental: The anti-oxidation activities was evaluated according to the method by A. Ben Aziz et al. […] That is to say, an emulsion of linoleic acid and β-carotene was first prepared with Tween 20 (Sigma) and adjusted to pH 7.0 with 0.1 M trishydroxyaminomethane-hydrochloride. […] During the reaction, the color degradation of β-carotene in association with the autoxidation of linoleic acid was measured with the passage of time as the decreased value of the optical density at 460 nm with a spectrophotometer. […] The antioxidant activity was measured as a ratio of the decreasing rate of absorbance in the presence of the substance to be tested to the decreasing rate of absorbance in the absence of the antioxidant.

[3] = system: gastric ulcer; assay: anti-ulcer test against indomethacin-induced gastric ulcer; type: in vivo, Wistar/ST male rats; conditions: for Length of ulcer: 30 minutes before indomethacin (50 mg/kg s.c.), control 47.75 ± 6.08; for Suppression rate: indomethacin ulcer, vs. control
Experimental: Ulcer was induced in Wistar/ST male rats having a weight of about 200 g (6 week-old) by indomethacin as a gastric ulcer inducing agent, and the anti-ulcer effects of the test samples were examined in the following six groups to which test samples were administered.
Each group comprises six rats.
______________________________________
Group 1: (control) physiological saline
Group 2: (comparative) cetraxate hydrochloride
Group 3: (the present invention) garcinol
Group 4: (the present invention) garcinol
Group 5: (the present invention) garcinol
Group 6: (the present invention) isogarcinol
In this connection, physiological saline containing 1% sodium carboxymethylcellulose was used as the control, and cetraxate hydrochloride (trade name "Neuer®S", Daiichi Pharmaceuticals Co., Ltd.) which is clinically used as an anti-ulcer agent was used as the comparative sample. The cetraxate hydrochloride insoluble in water was ground into fine powder with a mortar and a pestle and used as a suspension in a 1% sodium carboxymethylcellulose solution. Also, garcinol and isogarcinol in the form of fine powder were used as the suspensions in a 1% sodium carboxymethylcellulose solution in the concentrations which are the doses in the groups. In this connection, garcinol and isogarcinol used in the section of the present invention were those obtained in Referential Examples 1 and 2, respectively.
Experiment was carried out according to the method described by Yamahara et al. (see […] ZASSHI, 114, 401, 1994) which had been slightly modified. That is to say, indomethacin (50 mg/kg) was suspended in 1% sodium carboxymethylcellulose containing 0.1% Tween 20 (Sigma) and injected subcutaneously into the back of 24 hour fasted rats in an amount of 1 ml/rat. The samples in the six sections were orally administered at 30 minutes before administration of indomethacin. After 7 hours from the administration of indomethacin, rats were bleeded to death under anesthetization with nembutal, and stomach was isolated. A phosphate buffer (10 ml) containing 10% formalin was injected into the stomach, which was cut open after 10 minutes, and the length of lesion caused in the glandular stomach portion was defined as the lesion index, which was measured in the mm unit to evaluate the anti-ulcer effect. The suppression rate (%) in Table 1 means the value in which the difference of the length (mm) of ulcer in each group subtracted from the average length, 47.75 (mm) of ulcer in the control was divided with the average length, 47.75 (mm) of ulcer in the control. The larger the value, the stronger the anti-ulcer activity.

[4] = superoxide scavenging activity test with phenazine methosulfate; conditions: 40 μM final concentration
Experimental: The active oxygen scavenging activity was evaluated according to the superoxide scavenging activity test with phenazine methosulfate. That is to say, dihydronicotinamide adenine dinucleotide and phenazine methosulfate were first reacted in a buffer at a physiological hydrogen ion concentration. The absorbance at 560 nm of a formazan pigment produced by the reduction of Nitro Blue Tetrazolium with superoxide was measured. […] The ratio of decreases of absorbance was expressed as superoxide scavenging activity.

[5] = system: bovine lens α-crystallin; assay: α-crystallin crosslinking polymerization inhibiting activity; type: biochemical; conditions: 0.1 mM, 500 mM D-fructose, pH 7.4, 37° C., 2 weeks
Experimental: The effect of garcinol on bovine lens α-crystallin crosslinking polymerization reaction was evaluated. […] The gel after electrophoresis was stained with Coomassie Brilliant Blue, and the protein amounts in bands were determined with a densitometer. The crosslinking polymerization inhibiting activity of the protein was calculated from the following equation.
Protein polymerization inhibiting activity (%)=(Ps-Pc)/Pc×100
polymerization degree of protein=band density of polymerized protein/band density of monomer protein;
Ps: polymerization degree of protein in the presence of test substance;
Pc: polymerization degree of protein in the absence of test substance.

C=C(C)[C@@H](CC=C(C)C)C[C@@]12C[C@@H](CC=C(C)C)C(C)(C)[C@@](CC=C(C)C)(C(=O)C(C(=O)c3ccc(O)c(O)c3)=C1O)C2=O [garcinol]
viability at 48 h [1]: ≥ 80% | antioxidant activity (ratio of the decreasing rate of absorbance with to without test substance) [2]: 0.50 | Length of ulcer ([3]; 50 mg/kg oral): 5.75 ± 6.13 mm | Suppression rate ([3]; 50 mg/kg oral): 88.0% | Length of ulcer ([3]; 100 mg/kg oral): 4.00 ± 4.32 mm | Suppression rate ([3]; 100 mg/kg oral): 91.6% | Length of ulcer ([3]; 200 mg/kg oral): 3.00 ± 5.35 mm | Suppression rate ([3]; 200 mg/kg oral): 93.7% | superoxide scavenging rate [4]: 75% | protein polymerization inhibiting activity [5]: 68%
